The numbers were not newly measured in patent publication US20250176603A1, “Vegetable-Based Food Product” (L-CONE SP. Z O. O., priority 2023, published 2025), which cites them from elsewhere.

“Also recorded” adds a separate entry of the source.

The subject of data set [1] is diethylnitrosamine-induced hepatocarcinogenesis. The settings on record: rats.
For data set [2], the system named is lipopolysaccharide (LPS)-activated BV2 microglia.
For data set [3] the following is noted: in vivo.
A further data set relates to Ehrlich ascites tumor. As to conditions: mice.
Data set [4] deals with prostate cancer patients undergoing radiotherapy.
Data set [5] has as its system pancreatic cancer patients resistant to gemcitabine chemotherapy. The settings on record: 8 g/day in a divided dose for 11 months.
Another data set concerns TPOAb antibody. The settings on record: 200 ug for 3 months.
In data set [6] the test system is acetic acid-induced ulcerative colitis. As to conditions: oral administration.
In another data set the test system is DSS-induced colitis. As to conditions: DSS-induced colitis model.

On to `C=CCC(=NOS(=O)(=O)O)S[C@@H]1O[C@H](CO)[C@@H](O)[C@H](O)[C@H]1O` (stereo in doubt) [Sinigrin], for which the diethylnitrosamine-induced hepatocarcinogenesis result in [1] is on record as “inhibited”. Turning to `O=CC=Cc1ccccc1` [Cinnamaldehyde], the “production and expression of NO, IL-1b, IL-6 and TNF-a” value in data set [2] is reported as “decrease”. Besides, the tau protein aggregation result in the data set on tau protein was “potential in inhibiting”. For the compound `C[S+]([O-])CCCCN=C=S` (centres unmarked) [Sulforaphane], the level of bioavailability in data set [3] is reported as 74%. `C=CCN=C=S` [allyl isothiocyanate]: the “Ehrlich ascites tumor growth” value with Ehrlich ascites tumor is “inhibited”. For the same compound, the cytotoxic effect entry with bladder and in the data set on lung cancer cells was “cytotoxic effect” each time. For `COc1cc(/C=C/C(=O)CC(=O)/C=C/c2ccc(O)c(OC)c2)ccc1O` [curcumin], the “radiation side effects and therapeutic efficacy” value in [4] was “alleviate the side effects of radiation and enhance its therapeutic efficacy; also recorded: mitigate radiation side effects and enhance therapeutic efficacy”. Also, the “chances of longer survival” value in data set [5] is “significantly increased; also recorded: increased significantly”. In the case of `O=C(/C=C/C=C/c1ccc2c(c1)OCO2)N1CCCCC1` [piperine], in the data set with K-562 cells, the cytotoxic effects entry is “strong cytotoxic effects”. For the compound `C[Se]CC[C@H](N)C(=O)O` [selenomethionine], the TPOAb antibody levels entry in the data set with TPOAb antibody is reported as “significantly reduced”. `COc1cc(C2Oc3cc([C@H]4Oc5cc(O)cc(O)c5C(=O)[C@@H]4O)ccc3OC2CO)ccc1O` (some centres unmarked) [silybin]: the “IL-6 and TNF-α activity” value in data set [6] is given as “significant reduction”.

On to `O=[Se](=O)(O)O` [sodium selenate], for which the TPOAb antibody levels result in the data set with TPOAb antibody is “significantly reduced”. Consider `O=C1c2c(O)cc(O)cc2O[C@H](c2ccc(O)c(O)c2)[C@H]1O` [taxifolin], for which the NF-κB activation result in the data set on DSS-induced colitis is reported as “reduce”.
